The term Ki denotes the dissociation constant of the complex between target and ligand, obtained from inhibition or displacement. A higher Ki goes with weaker binding. A word on the Km: it is the concentration of substrate that gives half-maximal velocity.

Data set [1] deals with T1, Steryl-sulfatase (Homo sapiens, UniProt P08842).
T1 sequence (P08842 whole entry): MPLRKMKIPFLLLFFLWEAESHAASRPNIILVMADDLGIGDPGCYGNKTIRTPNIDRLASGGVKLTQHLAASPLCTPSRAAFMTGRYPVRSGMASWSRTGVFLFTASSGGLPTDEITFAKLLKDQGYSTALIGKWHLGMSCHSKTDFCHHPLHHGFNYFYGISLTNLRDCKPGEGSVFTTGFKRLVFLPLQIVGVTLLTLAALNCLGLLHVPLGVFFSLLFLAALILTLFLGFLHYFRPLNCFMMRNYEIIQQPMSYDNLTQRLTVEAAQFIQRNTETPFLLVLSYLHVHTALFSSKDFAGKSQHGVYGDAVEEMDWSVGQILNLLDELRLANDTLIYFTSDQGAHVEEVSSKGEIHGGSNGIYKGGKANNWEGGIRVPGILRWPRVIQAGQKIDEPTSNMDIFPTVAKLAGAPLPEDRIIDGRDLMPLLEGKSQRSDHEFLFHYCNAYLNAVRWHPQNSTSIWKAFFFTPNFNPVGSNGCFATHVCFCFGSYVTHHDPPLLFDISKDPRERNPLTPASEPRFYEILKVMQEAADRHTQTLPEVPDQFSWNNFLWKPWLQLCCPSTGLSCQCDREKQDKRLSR
The experiment in a line: (§1) Inhibitory activity against steroid sulfatase (STS).

Data set [2] deals with T1, Steryl-sulfatase. The experiment in a line: Competitive inhibitory activity against steroid sulfatase (STS).
The target in data set [3] is T2, Steryl-sulfatase (Homo sapiens) (UniProt P08842).
T2 sequence (whole entry): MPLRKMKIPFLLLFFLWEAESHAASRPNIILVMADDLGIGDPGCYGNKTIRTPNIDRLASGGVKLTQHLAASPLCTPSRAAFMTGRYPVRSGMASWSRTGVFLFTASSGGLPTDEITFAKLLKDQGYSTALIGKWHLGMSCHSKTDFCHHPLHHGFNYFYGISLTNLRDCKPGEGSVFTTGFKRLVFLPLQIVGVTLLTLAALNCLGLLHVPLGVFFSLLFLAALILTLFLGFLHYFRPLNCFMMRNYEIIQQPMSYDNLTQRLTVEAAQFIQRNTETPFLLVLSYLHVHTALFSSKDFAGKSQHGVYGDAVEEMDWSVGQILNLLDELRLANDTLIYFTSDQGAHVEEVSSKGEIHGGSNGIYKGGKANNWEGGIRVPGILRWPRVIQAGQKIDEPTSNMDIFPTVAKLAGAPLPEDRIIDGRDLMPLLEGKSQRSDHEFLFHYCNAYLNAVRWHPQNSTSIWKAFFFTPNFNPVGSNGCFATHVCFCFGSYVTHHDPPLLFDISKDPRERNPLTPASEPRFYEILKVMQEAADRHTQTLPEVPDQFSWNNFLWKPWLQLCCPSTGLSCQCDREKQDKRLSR
Described as §1.

The target in data set [4] is T2, Steryl-sulfatase (Homo sapiens).
Data set [5] concerns the target T1, Steryl-sulfatase. The experiment in a line: Inhibitory activity against steroid sulfatase (STS) using methodology of Li et al.
Substrate in data set [6]: C[C@]12CC[C@@H]3c4ccc(OS(=O)(=O)O)cc4CC[C@H]3[C@@H]1CCC2=O
The experiment in a line: Michaelis-Menten constant steroid sulfatase (STS) was determined.

In data set [1], `C[C@]12CC[C@@H]3c4ccc(C(F)(F)S(=O)(=O)O)cc4CC[C@H]3[C@@H]1CC/C2=C\O` showed a Ki of 37 µM. That is a double-digit micromolar value.

The molecule `C[C@]12CC[C@@H]3c4ccc(CS(=O)(=O)O)cc4CC[C@H]3[C@@H]1CC/C2=C\O` displayed a Ki in data set [1] of 140 µM. Compared with the last molecule, the Ki is about 3.8-fold higher.

For `C[C@]12CC[C@@H]3c4ccc(C(F)(F)C5N=NN=N5)cc4CC[C@H]3[C@@H]1CCC2=O`, the Ki in data set [2] was found to be 16 µM. This counts as double-digit micromolar.

Take `C[C@]12CC[C@@H]3c4ccc(Cc5nnn[nH]5)cc4CCC3[C@@H]1CCC2=O` (single isomer, unassigned): affinity in data set [1] was put at a Ki of 72.7 µM. In data set [3], this molecule gave an Alpha Ki of 213 µM.

For `C[C@]12CC[C@@H]3c4ccc(CS(=O)(=O)O)cc4CCC3[C@@H]1CCC2=O` (single isomer, unassigned), the Ki worked out at 140 µM in data set [1] and 600 µM in data set [5]. In data set [4], this molecule gave an Alpha Ki of 1380 µM.

With `C[C@]12CC[C@@H]3c4ccc(C(F)(F)S(=O)(=O)O)cc4CCC3[C@@H]1CCC2=O` (single isomer, unassigned), the affinity in data set [2], expressed as Ki, was 57 µM.

B1: Steryl-sulfatase (Homo sapiens), P08842 (protein)
chain: MPLRKMKIPFLLLFFLWEAESHAASRPNIILVMADDLGIGDPGCYGNKTIRTPNIDRLASGGVKLTQHLAASPLCTPSRAAFMTGRYPVRSGMASWSRTGVFLFTASSGGLPTDEITFAKLLKDQGYSTALIGKWHLGMSCHSKTDFCHHPLHHGFNYFYGISLTNLRDCKPGEGSVFTTGFKRLVFLPLQIVGVTLLTLAALNCLGLLHVPLGVFFSLLFLAALILTLFLGFLHYFRPLNCFMMRNYEIIQQPMSYDNLTQRLTVEAAQFIQRNTETPFLLVLSYLHVHTALFSSKDFAGKSQHGVYGDAVEEMDWSVGQILNLLDELRLANDTLIYFTSDQGAHVEEVSSKGEIHGGSNGIYKGGKANNWEGGIRVPGILRWPRVIQAGQKIDEPTSNMDIFPTVAKLAGAPLPEDRIIDGRDLMPLLEGKSQRSDHEFLFHYCNAYLNAVRWHPQNSTSIWKAFFFTPNFNPVGSNGCFATHVCFCFGSYVTHHDPPLLFDISKDPRERNPLTPASEPRFYEILKVMQEAADRHTQTLPEVPDQFSWNNFLWKPWLQLCCPSTGLSCQCDREKQDKRLSR
As for B1, the Km in data set [6] turned out to be 21 µM.

The values are drawn from ChEMBL document CHEMBL1146685, “The difluoromethylene group as a replacement for the labile oxygen in steroid sulfates: a new approach to steroid sulfatase inhibitors” (Bioorg Med Chem Lett, 2004).
